From US6413974B1, “6,9,-disubstituted 2-[trans-(4-aminocyclohexyl) amino] purines” (Aventis Pharmaceuticals Inc., priority 1998, dated 2002) come the findings set out here.

For assay [1], the target named is T1, cdk2/cyclin E (Homo sapiens, UniProt P24941).
T1 construct: made in house; host or cells: insect cells (baculovirus co-infection)
The experiment in a line: Cyclin-Dependent Kinase 2 Assay (cdk-2 inhibition). It counts as biochemical. The settings on record: GST-Rb substrate, 30 min at 30° C. The procedure:
(§1) The transformed bacteria were grown overnight to saturation, then diluted in YT broth and incubated at 37° C. for 2 h. The protein was induced by incubation with 0.1 mM isopropylthioglycoside for 3 h. Following sedimentation by centrifugation, the cells were lysed by sonication in STE buffer ([…] NaCl, 10 mM Tris, pH 8.0, 1 mM EDTA) containing 10% sarkosyl. Particulate matter was removed by centrifugation and the lysate was incubated with glutathione-Sepharose at 4° C. The beads were washed with kinase buffer and then quantitation of Coomassie blue-stained proteins separated by SDS-PAGE was performed using a protein standard of known concentration.
(§2) Pre-wet Millipore Multiscreen 96-well filter plates (0.65 μm Durapore filters) with 200 μl kinase buffer (50 mM HEPES, pH 7.5, 10 mM MgCl2, 1 mM EGTA). GST-Rb (0.5 μg) bound to glutathione-Sepharose beads is added in 50 μl per well and the solution removed by application of vacuum. […] Add 0.1 μg cdk4/cyclin D1 (insect cell lysate) to initiate assay. Incubate 30 min at 37° C. Terminate reaction by filtration on Millipore Vacuum Manifold. Wash four times with TNEN (20 mM Tris, pH 8.0, 100 mM Na Cl, 1 mM EDTA, 0.5% nonidet P-40). After drying the plates at room temperature, the filter plates were placed in adapter plates (Packard) and 40 μl of Microscint-O® (Packard) was added to each well. Top Seal A film was used to cover the plates before counting in a Top Count Scintillation Counter.
GST-Rb as described above for cdk4/cyclin D1
Assay conditions for cdk2/cyclin E were identical to those for cdk4/cyclin D1 including the substrate. The concentration of recombinant cdk2/cyclin E in the assay was 0.1 μg per 100 μl assay. Incubation was for 30 min at 30° C.

The target in assay [2] is T2, cdk4/cyclin D1 (Homo sapiens, UniProt P11802).
T2 construct: made in house; host or cells: Sf9 insect cells (Bac-to-Bac baculovirus, pFastBac)
T2 sequence (P11802 whole entry): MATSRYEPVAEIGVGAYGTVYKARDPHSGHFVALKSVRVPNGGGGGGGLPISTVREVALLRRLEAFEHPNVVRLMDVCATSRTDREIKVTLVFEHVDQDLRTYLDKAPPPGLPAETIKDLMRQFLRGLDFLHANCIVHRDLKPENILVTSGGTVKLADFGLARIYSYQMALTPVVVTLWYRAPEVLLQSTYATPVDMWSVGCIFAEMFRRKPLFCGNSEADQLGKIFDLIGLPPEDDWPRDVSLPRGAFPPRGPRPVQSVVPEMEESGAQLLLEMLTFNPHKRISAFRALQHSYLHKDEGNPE
T2 sequence (P24385 whole entry partner): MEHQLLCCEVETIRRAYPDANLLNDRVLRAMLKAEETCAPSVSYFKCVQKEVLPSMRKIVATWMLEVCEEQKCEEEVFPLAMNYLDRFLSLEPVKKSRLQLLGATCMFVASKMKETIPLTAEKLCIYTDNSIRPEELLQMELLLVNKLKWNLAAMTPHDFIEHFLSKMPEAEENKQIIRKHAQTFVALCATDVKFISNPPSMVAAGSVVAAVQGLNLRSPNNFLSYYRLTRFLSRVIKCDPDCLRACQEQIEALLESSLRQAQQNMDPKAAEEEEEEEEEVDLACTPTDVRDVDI
Description: Cyclin-dependent kinase 4 Assay. It is filed as biochemical. The note with it: cdk4/cyclin D1, GST-Rb substrate, 10 μM ATP, 30 min at 37° C.; read-out: CDK4 Inhibition IC50. The procedure: The IC50 values for cdk-4 inhibition were by the following method:
as §1
The cDNA for human cyclin D1 was cloned by RT PCR using […] from MCF-7 cells. […] Bacmid DNA was used to transfect Sf9 insect cells to produce recombinant virus. Following plaque purification of the virus, the viral preparations were amplified until high titer stocks were acheived.
Lysates were prepared by lysis of Sf9 cells coinfected with cdk4 and cyclin D1 in 50 mM HEPES, pH 7.5, 10 mM MgCl2, 1 mM DTT, 0.1 mM phenylmethylsulfonyl fluoride, 5 μg/ml aprotinin, and 5 μg/ml leupeptin using a PARR bomb under 500 p.s.i nitrogen pressure for 5 min at 4° C. Insoluble material was sedimented at 10,000×g for 20 min at 4° C. Glycerol was added to the supernatant to 10% and stored at −80° C. in aliquots.
as §2

The test system of assay [3] is MDA-MB-231. The experiment in a line: In vitro tumor cell proliferation, MDA-MB-231. The settings on record: read-out: In vitro Tumor Cell Proliferation (IC50, μM) Breast MDA-MB-231. It counts as cell-based, human. The procedure:
(§3) The proliferation of tumor cells was measured using a sulforhodamine B assay as described in Skehan, P., et al., J. Natl. Cancer Inst. […] Tumor cells were harvested with trypsin-EDTA, cells that excluded trypan blue were counted, added to 96-well plates and incubated overnight at 37° C. Drug was added to the wells following dilution in culture medium. Three days later, the medium was removed and replenished with medium containing fresh drug and incubated an additional 4 days. The cells were then fixed with 0.1 ml 10% trichloroacetic acid for 60 min at 4° C. The plates were rinsed five times with tap water, air-dried and stained for 30 min with 0.4% sulforhodamine B in 1% acetic acid and air-dried.
(§4) Alternatively, the CyQUANT cell proliferation assay was used to quantify tumor cell proliferation. Tumor cells were harvested with trypsin-EDTA, cells that excluded trypan blue were counted, added to 96-well plates and incubated overnight at 37° C. Drug was added to the wells following dilution in culture medium. Three days later the medium was removed and the plates frozen at −80° C. for at least 30 minutes.

Assay [4] deals with MDA-MB-435. Description: In vitro tumor cell proliferation, MDA-MB-435. It is filed as cell-based, human. The settings on record: read-out: In vitro Tumor Cell Proliferation (IC50, μM) Breast MDA-MB-435. The procedure: as §3, §4
For assay [5], the system named is HT-29. The experiment in a line: In vitro tumor cell proliferation, HT-29. It counts as cell-based, human. The settings on record: read-out: In vitro Tumor Cell Proliferation (IC50, μM) Colon HT-29 (converted). The procedure:
as §3, §4
HT-29 is a human colon adenocarcinoma, moderately well-differentiated grade II (HTB 38);

Assay [6] relates to Colo-205. Description: In vitro tumor cell proliferation, Colo-205. It counts as cell-based, human. The note with it: read-out: In vitro Tumor Cell Proliferation (IC50, μM) Colon Colo-205. The procedure: as §3, §4
The test system of assay [7] is A549. The experiment in a line: In vitro tumor cell proliferation, A549. It is filed as cell-based, human. The settings on record: read-out: In vitro Tumor Cell Proliferation (IC50, μM) Lung A549. The procedure:
as §3, §4

Assay [8] deals with DMS-114. The experiment in a line: In vitro tumor cell proliferation, DMS-114. The settings on record: read-out: In vitro Tumor Cell Proliferation (IC50, μM) Lung DMS-114. It counts as cell-based, human. The procedure: as §3, §4
Assay [9] relates to DU 145. Description: In vitro tumor cell proliferation, DU 145. The settings on record: read-out: In vitro Tumor Cell Proliferation (IC50, μM) Prostate DUI45. It counts as cell-based, human. The procedure:
as §3, §4

Assay [10] has as its system PC-3. The experiment in a line: In vitro tumor cell proliferation, PC-3. The note with it: read-out: In vitro Tumor Cell Proliferation (IC50, μM) Prostate PC-3. It is filed as cell-based, human. The procedure: as §3, §4
[11] abbreviates: Homo sapiens, MDA-MB-231, values marked * (mark not explained).
The mark [12] stands for this setting: values marked * (mark not explained), dihydrochloride.
Where [13] appears, read: Homo sapiens, HT-29, values marked * (mark not explained).
Setting [14] is: Homo sapiens, COLO 205, values marked * (mark not explained).
Setting [15] is: Homo sapiens, A549, values marked * (mark not explained).
Where [16] appears, read: Homo sapiens, DMS-114, values marked * (mark not explained).
Where [17] appears, read: Homo sapiens, DU-145, values marked * (mark not explained).
[18] abbreviates: Homo sapiens, MDA-MB-435, values marked * (mark not explained).
The mark [19] stands for this setting: Homo sapiens, PC-3, values marked * (mark not explained).

Molecules are shown by their SMILES. Several values for one entry are separate records, joined by “and”; a condition that tells them apart may be missing. Equal values may be shown once. Where a name gives a salt, the structure may show the parent alone. Read-outs that look alike come from different tables or passages of the source.

As for `N[C@H]1CC[C@H](Nc2nc(NCCc3c[nH]c4ccccc34)c3ncn(C4CCCC4)c3n2)CC1` [Example 2, 2-[Trans-(4-aminocyclohexyl)amino]-6-[(3-indolyl)-2-ethylamino]-9-cyclopentylpurine dihydrochloride], the IC50 is 0.14 µM in [1]; 0.6 µM and 0.9 µM in assay [2]; 6.5 µM in assay [3] (setting [11]); 6.6 µM in [3] (setting [12]); 11 µM in assay [4] (setting [12]); 10 µM in assay [5] (setting [13]). In addition, the IC50 in [6] (setting [14]) stood at 11 µM; in assay [6] (setting [12]) it was 8.6 µM; in [7] (setting [15]), 11 µM; in [8] (setting [16]), 8.7 µM; in assay [8] (setting [12]), 10 µM; in assay [9] (setting [17]), 12 µM. In [9] (setting [12]), the IC50 stood at 6.7 µM.
For `N[C@H]1CC[C@H](Nc2nc(NCCCN3CCOCC3)c3ncn(C4CCCC4)c3n2)CC1` [Example 9, 2-[Trans-(4-aminocyclohexyl)amino]-6-[3-(4-morpholinyl)propylamino]-9-cyclopentylpurine dihydrochloride], the IC50 in [1] was 0.09 µM and 0.15 µM; in assay [2] it was 0.3 µM and 0.4 µM; in assay [3] (setting [11]), 2.7 µM; in assay [3] (setting [12]) it was 2.6 µM; in [4] (setting [18]), 5.2 µM; in [4] (setting [12]) it was 6 µM. Besides, the IC50 was 5.6 µM in assay [5] (setting [13]); 5.1 µM in assay [5] (setting [12]); 3.7 µM in assay [8] (setting [16]); 2.8 µM in assay [8] (setting [12]); 4.6 µM in assay [10] (setting [19]); 3.1 µM in assay [10] (setting [12]). The IC50 was determined as 4.4 µM in [9] (setting [17]) and 3.2 µM in assay [9] (setting [12]).
Regarding `N[C@H]1CC[C@H](Nc2nc(NNCCO)c3ncn(C4CCCC4)c3n2)CC1` [Example 14, 2-[Trans-(4-aminocyclohexyl)amino]-6-[2-hydroxyethylhydrazino]-9-cyclopentylpurine dihydrochloride], the IC50 in assay [1] is 0.046 µM; in assay [2] it was 0.058 µM and 0.067 µM; in [3] (setting [11]) it was 19 µM; in assay [3] (setting [12]) it was 22 µM; in assay [4] (setting [18]), 44 µM; in assay [4] (setting [12]), 27 µM. Further, the IC50 in [5] (setting [13]) was 34 µM; in [5] (setting [12]), 29 µM; in assay [6] (setting [14]), 17 µM; in assay [6] (setting [12]), 16 µM; in assay [7] (setting [15]), 24 µM; in [7] (setting [12]) it was 15 µM. Also, the IC50 was determined as 22 µM in [8] (setting [16]), 20 µM in assay [8] (setting [12]), 17 µM in [9] (setting [17]) and 21 µM in [9] (setting [12]).
On to `N[C@H]1CC[C@H](Nc2nc(NCc3ccccc3Cl)c3ncn(C4CCCC4)c3n2)CC1` [Example 18, 2-[Trans-(4-aminocyclohexyl)amino]-6-[(2-chlorobenzyl)amino]-9-cyclopentylpurine dihydrochloride], for which the IC50 in assay [1] was 0.12 µM and 0.1 µM; in assay [2] it was 1.3 µM and 1 µM; in assay [4] (setting [18]), 8 µM; in assay [4] (setting [12]), 8.2 µM; in assay [5] (setting [13]), 2.4 µM; in assay [5] (setting [12]), 2.5 µM and 4.1 µM. The IC50 in [7] (setting [15]) is 1.7 µM; in assay [7] (setting [12]) it was 2.2 µM and 1.8 µM.
Turning to `CCC(C)(CO)Nc1nc(N[C@H]2CC[C@H](N)CC2)nc2c1ncn2C1CCCC1` (some centres unmarked) [Example 23, dihydrochloride], the IC50 in assay [1] was 0.27 µM; in assay [2] it was 4 µM and 2.5 µM; in [3] (setting [11]), 19 µM; in [3] (setting [12]) it was 25 µM; in [4] (setting [18]), 23 µM; in [4] (setting [12]), 38 µM. Further, the IC50 in [5] (setting [13]) is 16 µM; in assay [5] (setting [12]) it was greater than 20 µM; in assay [7] (setting [12]), 10 µM; in assay [8] (setting [16]), 28 µM; in assay [8] (setting [12]) it was 23 µM; in assay [10] (setting [19]) it was 16 µM. In addition, the results for the IC50 in assay [9] (setting [17]) and in [9] (setting [12]) were 15 µM and 17 µM, respectively.
For `CNc1nc(N[C@H]2CC[C@H](N)CC2)nc2c1ncn2C1CCCC1` [Example 28, 2-[Trans-(4-aminocyclohexyl)amino]-6-(methylamino)-9-cyclopentylpurine dihydrochloride], the IC50 is 0.038 µM in assay [1]; 0.19 µM and 0.22 µM in [2]; 1.3 µM in assay [3] (setting [11]); 1.6 µM in [3] (setting [12]); 3.2 µM in assay [4] (setting [18]); 4.5 µM in [4] (setting [12]). Further, the IC50 was 1.8 µM in [5] (setting [13]); 1.9 µM in assay [6] (setting [14]); 2.1 µM in assay [6] (setting [12]); 1.4 µM in [8] (setting [16]); 1.7 µM in [9] (setting [17]); 0.86 µM in [9] (Homo sapiens, DU-145, values without *).
With `N[C@H]1CC[C@H](Nc2nc(NNCC(F)(F)F)c3ncn(C4CCCC4)c3n2)CC1` [Example 52, 2-[Trans-(4-aminocyclohexyl)amino]-6-[2,2,2-trifluoroethylhydrazino]-9-cyclopentylpurine dihydrochloride], the IC50 in assay [1] is 91 nM and 44 nM (2×); in assay [2], 1.8 µM; in [3] (setting [11]) it was 2.7 µM; in assay [3] (setting [12]) it was 3.1 µM; in assay [4] (setting [18]) it was 5.6 µM; in assay [4] (setting [12]), 5.1 µM. Further, the IC50 in [5] (setting [13]) is 3.6 µM; in assay [6] (setting [14]), 3.1 µM; in assay [6] (setting [12]), 3.2 µM; in assay [8] (setting [16]) it was 1.7 µM; in assay [9] (setting [17]), 2.3 µM; in [9] (setting [12]), 2.8 µM.
